{"source": "patent US20220362182A1", "about": "“METHODS FOR REVERSING HEPATIC STEATOSIS” (BRIGHTSEED, INC., priority 2020, published 2022)", "key": {"[1]": {"tested_on": "SPNS2 mRNA", "assay": "SPNS2 qPCR in mouse liver", "assay_type": "in vivo", "protocol": "(§1) Quantitative PCR (Q-PCR) from in vitro cell culture experiments used total RNA purified using RNeasy Kits (Qiagen). For liver tissue samples, total RNA was isolated using Trizol (Invitrogen) and prepared for RNAseq (mouse liver DMSO and NCT, N=3). cDNA was amplified using 3 μg of total RNA using qScript cDNA SuperMix (Quanta BioSciences, Beverly, Mass., USA). QPCR analysis was performed using SYBR® Select Master Mix (Applied Biosystems) and ABI 7900HT (Applied Biosystems, Thermo Fisher Scientific). The Ct values of mRNA expression were then normalized to the 18 s rRNA values and are expressed as fold change over samples from mice fed normal chow for in vivo experiments or DMSO controls for cell culture experiments."}, "[2]": {"tested_on": "SPNS2 mRNA", "assay": "SPNS2 qPCR in mouse pancreas", "assay_type": "in vivo", "protocol": "as §1"}, "[3]": {"tested_on": "CYP26A1 mRNA", "assay": "hepatic CYP26A1 mRNA in DIO mice", "assay_type": "in vivo", "conditions": "mouse liver", "protocol": "as §1\nFor dose response experiments, mice were injected intraperitoneally with 10% DMSO as vehicle control or 4 different doses of NCT (30, 60, 120 and 240 mg/kg of body weight) dissolved in 10% DMSO. Mice received 2 doses per day with a 5 h interval between injections for 3 days. To test the effect of NCT (Sundia MediTech Company, Ltd., Custom synthesis), 200 mg/kg was injected IP bid for 14 days. On day 15, mice received a final dose of NCT followed by IP injection with 3 g/kg dextrose. One h later, blood samples were collected and mice were euthanized using pentobarbital. Total mouse, liver and epididymal fat pad weights were measured. […]"}, "[4]": {"assay_type": "in vivo", "conditions": "mice, 30, 60, 120 and 240 mg/kg bid for 3 days, IP", "protocol": "(§2) For dose response experiments, mice were injected intraperitoneally with 10% DMSO as vehicle control or 4 different doses of NCT (30, 60, 120 and 240 mg/kg of body weight) dissolved in 10% DMSO. Mice received 2 doses per day with a 5 h interval between injections for 3 days. To test the effect of NCT (Sundia MediTech Company, Ltd., Custom synthesis), 200 mg/kg was injected IP bid for 14 days. On day 15, mice received a final dose of NCT followed by IP injection with 3 g/kg dextrose. One h later, blood samples were collected and mice were euthanized using pentobarbital. Total mouse, liver and epididymal fat pad weights were measured. Dissected liver samples were washed in cold PBS, cut into small pieces and distributed for analyses. For RNA isolation and ELISA, liver samples were snap frozen using liquid nitrogen and stored at −80° C. For histomorphometry and immunofluorescence analysis, liver samples were fixed in 4% of cold PFA and processed for histology. All animal experiments were approved by the Institutional Animal Care and Use Committee (IACUC) of the Sanford Burnham Prebys Medical Discovery Institute in accordance with national regulations.\nHaving established that NCT reduces the level of stored fat in cells in vitro, it was of interest to determine its effect in vivo. […]"}, "[5]": {"tested_on": "C57BL/6J DIO mice", "assay": "DIO mice injected IP for 14 days (hepatic steatosis)", "assay_type": "in vivo", "conditions": "for serum free fatty acids (FFA): after glucose challenge; for hepatic stored fat by Oil Red O staining: liver sections; for hepatic stored fat by Oil Red O staining / alkaline phosphatase (ALP) / epididymal fat pad weight / hepatic triglyceride content / liver weight / hepatic steatosis: 200 mg/kg; for alkaline phosphatase (ALP) / epididymal fat pad weight / hepatic triglyceride content / liver weight: vs DMSO; for hepatic steatosis: two weeks; for toxicity / general condition: mice, IP, up to the highest dose administered", "protocol": "Compounds were injected IP into diet-induced obese mice at a dose of 200 mg/kg bid for two weeks. At that point, mice were sacrificed and organs were harvested for analysis. To test the hypothesis that HNF4a controls hepatic fat storage, N-trans-caffeoyltyramine was administered to C57BL/6J DIO mice maintained on a 60% fat calorie diet. Based upon PK studies with N-trans-caffeoyltyramine, IP injection was chosen for two week for these proof of concept studies. […] It was observed that N-trans-caffeoyltyramine was stimulating lipophagy (FIG. 1A).\nSlides containing frozen liver tissue sections from mice were air dried for 10-20 min followed by rehydration in distilled water. Sections were immersed in absolute propylene glycol (Cat #151957, MP Biomedicals, LLC, USA) for 2 min followed by 0.5% in oil red O solution (Cat #K043, Poly Scientific R&D, USA) for 2 h. Slides were then differentiated in 85% propylene glycol solution, washed with dH2O for 2 h, and mounted using glycerin jelly mounting medium. All slides were scanned at a magnification of 20× using the Aperio Scanscope FL system (Aperio Technologies Inc., Vista, Calif., USA). The liver area stained with oil red O was measured using image J software as described, with some modifications. Oil red O-stained liver images were opened in Image J software. Using the Analyze>Set Scale command, the scale bar of the images was set to 200 um. RGB images were then converted into gray scale images using the Image>Type>RGB Stack command and were split into red, blue and green channels. Using the Image>Adjust>Threshold command, the threshold was manually set to highlight the oil red O-stained lipid droplets in the green channel. The same threshold was used for all the images in all treatment groups and the % oil red O-stained area was obtained using the Analyze→Measure tool command. Fold change was calculated by normalizing the values to images from mice fed normal chow.\n12-week-old C57BL/6 J DIO male mice (cat #380050) were purchased from Jackson Laboratory and were fed with high fat diet containing 60 kcal % fat (Research Diets cat #D12492). Mice were maintained in a 12-h light/day cycle. After 2 weeks of acclimation, mice with similar body weights were randomly assigned to treatment or control groups.\nas §2\nThe serum FFA level was measured using the Free Fatty Acid Quantification Colorimetric/Fluorometric Kit (Cat #K612, BioVision, USA). Fold change was calculated by normalizing to values from mice fed normal chow.\nSerum and liver TG level was measured using the Triglyceride calorimetric Assay Kit (Cat #10010303, Cayman Chemicals, USA). Fold change was calculated by normalizing the values from normal chow mice. […]"}, "[6]": {"tested_on": "hepatic steatosis", "assay": "oral administration in mice (hepatic steatosis)", "assay_type": "in vivo, mouse", "conditions": "subsequent studies"}, "[7]": {"tested_on": "SPNS2 mRNA", "assay": "SPNS2 qPCR in T6PNE cells", "assay_type": "cell-based, human", "protocol": "as §1"}, "[8]": {"conditions": "DIO mice, 200 mg/kg bid IP, 14 days"}, "[9]": {"conditions": "DIO mice, 200 mg/kg bid IP, 14 days, listed as N-trans-caffeoyltyramine"}, "[10]": {"conditions": "listed as N-trans-caffeoyltyramine"}}, "note": "“Also recorded” adds a separate entry of the source. Where two headings read alike, the source gives them in different places."}
{"smiles": "O=C(/C=C/c1ccc(O)c(O)c1)NCCc1ccc(O)cc1", "note": "[NCT, N-trans-caffeoyltyramine]", "values": [{"measurement": "SPNS2 expression in mouse liver", "setting": "[1]", "value": "did not induce a change in SPNS2 expression; also recorded: not mouse liver"}, {"measurement": "SPNS2 expression in mouse pancreas", "setting": "[2]", "value": "induced SPNS2 expression"}, {"measurement": "hepatic CYP26A1 mRNA", "setting": "[3]", "value": "induced CYP26a1"}, {"measurement": "tolerability", "setting": "[4]", "value": "well tolerated"}, {"measurement": "color of the liver", "setting": "[5]; [8]", "value": "shift in the color of the liver from yellow to red"}, {"measurement": "other markers of liver function in the VetScan panel", "setting": "[5]; [8]", "value": "no change"}, {"measurement": "serum free fatty acids (FFA)", "setting": "[5]; [8]", "value": "induced an increase in free fatty acids"}, {"measurement": "serum free fatty acids (FFA)", "setting": "[5]; [9]", "value": "induced an increase in free fatty acids; also recorded: Serum FFA were increased"}, {"measurement": "hepatic stored fat by Oil Red O staining", "setting": "[5]; [8]", "value": "decrease in stored fat by Oil Red O staining"}, {"measurement": "hepatic stored fat by Oil Red O staining", "setting": "[5]; [9]", "value": "decrease in stored fat by Oil Red O staining; also recorded: significantly reduced the Oil Red O"}, {"measurement": "alkaline phosphatase (ALP)", "setting": "[5]; [8]", "value": "decreased ALP; also recorded: decrease in ALP"}, {"measurement": "epididymal fat pad weight", "setting": "[5]; [8]", "value": "increase in epididymal fat pad mass; also recorded: increased weight"}, {"measurement": "hepatic triglyceride content", "setting": "[5]; [8]", "value": "reduction in the hepatic triglyceride content"}, {"measurement": "liver weight", "setting": "[5]; [8]", "value": "weighed less than those of the control mice"}, {"measurement": "alkaline phosphatase (ALP)", "setting": "[5]; [9]", "value": "ALP was decreased"}, {"measurement": "epididymal fat pad weight", "setting": "[5]; [9]", "value": "increase in epididymal fat pad mass; also recorded: increase in epididymal fat pad weight"}, {"measurement": "hepatic triglyceride content", "setting": "[5]; [9]", "value": "hepatic triglyceride content was decreased; also recorded: significantly reduced"}, {"measurement": "liver weight", "setting": "[5]; [9]", "value": "weighed less than those of the control mice; also recorded: decreased liver weight"}, {"measurement": "body weight gain", "setting": "[5]; DIO mice, 200 mg/kg bid IP, 14 days, vs control", "value": "gained weight to a similar degree"}, {"measurement": "hepatic steatosis", "setting": "[5]; DIO mice, 200 mg/kg bid IP", "value": "reversed hepatic steatosis; also recorded: reversal of hepatic steatosis; also recorded: reduction of steatosis"}, {"measurement": "hepatic steatosis", "setting": "[5]; DIO mice, 200 mg/kg bid IP, listed as N-trans-caffeoyltyramine", "value": "reverses hepatic steatosis"}, {"measurement": "serum TG at week 1", "setting": "[5]; DIO mice, 200 mg/kg bid IP, week 1", "value": "increased"}, {"measurement": "serum TG at week 2", "setting": "[5]; DIO mice, 200 mg/kg bid IP, week 2, end of the study", "value": "not at week 2"}, {"measurement": "toxicity / general condition", "setting": "[5]", "value": "remained healthy and active; also recorded: unable to establish a maximum tolerated dose because of the lack of toxicity; also recorded: completely nontoxic at the highest dose administered"}, {"measurement": "toxicity / general condition", "setting": "[5]; [10]", "value": "remained healthy and active"}, {"measurement": "hepatic steatosis after oral administration", "setting": "[6]", "value": "effective in reducing hepatic steatosis in mice"}, {"measurement": "SPNS2 expression (mRNA)", "setting": "[7]", "value": "induced SPNS2 expression"}, {"measurement": "SPNS2 expression (mRNA)", "setting": "[7]; [10]", "value": "induced the expression"}]}
